In patent US20240424134A1, “PEPTIDE HAVING INDEPENDENTLY STABILIZED HYDROPHOBIC ALPHA HELIX, PEPTIDE COMPLEX COMPRISING SAME AND USES THEREOF” (UIF (University Industry Foundation), Yonsei University, priority 2022, published 2024):
“Also recorded” adds a separate entry of the source. Non-standard residues stand in square brackets, D forms with d. No end group written: not given here. Aib = CC(C)(N)C(=O)O

Key:
[1] = CD (circular dichroism) spectroscopy of α-helix structure; format: physicochemical
Procedure: To evaluate the structures of a linear plasmid DNA and peptides, CD spectra were analyzed using a Chirascan CD spectrometer (Applied Photophysics, UK). […] The final concentration of the linear plasmid DNA was 30 ng/μL. All the samples were dissolved in H2O. For the formation of the artificial chromosome, a mixture of the peptide and the DNA was incubated for 12 days or longer. Scanning was performed using a 2-mm path-length cuvette. Each scan was repeated three times and averaged. MRE (mean residue ellipticity) was calculated based on the number of amino acid residues.
CD (circular dichroism) spectroscopy was performed as follows.
The CD spectra were analyzed using a Chirascan CD spectrometer (Applied Photophysics, UK). […] All the samples were dissolved in H2O. Each scan was repeated three times using a 2-mm path-length cuvette and averaged. MRE (mean residue ellipticity) was calculated based on the number of amino acid residues.

[2] = AFM analysis of self-assembled peptide complexes; format: physicochemical; settings: for AFM morphology / Average diameter (nm): Table 12, self-assembled structure; for AFM morphology: 25 μM in distilled water
Procedure: AFM was performed using an NX10 system (Park Systems, Korea) in a non-contact mode with PPP-NCHR AFM probes (Nanosensors, Switzerland). The DNA concentration ranged from 1 to 30 ng/μL and the peptide concentration ranged from 1 to 32 μM (in H2O). 2 μL of the sample solution was cast onto a freshly cleaved mica surface and dried. The data obtained by the SmartScan program (Park Systems, Korea) was analyzed using the XEI program (Park Systems, Korea).
The CD spectroscopy was performed in the same manner as in Test Example 2 and the AFM was performed using the NX10 system (Park Systems, Korea) in a non-contact mode with PPP-NCHR AFM probes (Nanosensors, Switzerland). The peptide complex concentration ranged from 1 to 32 μM (in H2O). 2 μL of the sample solution was cast onto a freshly cleaved mica surface and dried. The data obtained by the SmartScan program (Park Systems, Korea) were analyzed using the XEI program (Park Systems, Korea).
The peptide complexes of Examples 37-40 were imaged by AFM. 25 μM of the peptide complex was dissolved in distilled water, sonicated for 5 minutes, incubated overnight and dropped on mica for measurement.

[3] = Table 13, cyclic peptide complexes
[4] = Table 11, peptide complexes of Examples 37-97
[5] = Table 14, coil-rod-coil peptide complexes
[6] = Table 10, hydrophobic peptides of Examples 1-36
[7] = Table 9, linear and cyclic αm-PEG10 peptide complexes, in H2O

(PEG2)5RRRRRR(PEG2)5WAUAUAUAUAUAUAUAU [Example 111]
[θ]222/[θ]208 [1, 3]: 0.95

(PEG8)2 AUAUAUAUA [Example 55]
AFM morphology [2]: Not assembled | θ222 nm/θ208 nm ratio [1, 4]: 0.58

(PEG8)2 AUAUAUAUAUAUAUA [Example 56]
Average diameter (nm) [2]: 20-40 nm | AFM morphology [2]: Micelle | θ222 nm/θ208 nm ratio [1, 4]: 1.11

(PEG8)2 AUAUAUAUAUAUAUAUAUAUA [Example 57]
Average diameter (nm) [2]: 30-80 nm | AFM morphology [2]: Vesicle | θ222 nm/θ208 nm ratio [1, 4]: 1.22

(PEG8)2AUAUAUAUA(PEG8)2 [Example 123]
[θ]222/[θ]208 [1, 5]: 0.6

(PEG8)2AUAUAUAUAUAUAUA(PEG8)2 [Example 124]
[θ]222/[θ]208 [1, 5]: 0.78

(PEG8)2AUAUAUAUAUAUAUAUAUAUA(PEG8)2 [Example 125]
self-assembly behavior in an aqueous solvent ([2]; AFM): did not self-assemble | [θ]222/[θ]208 [1, 5]: 1.21 | [θ]222/[θ]203 ratio ([1]; depending on concentration): 1.1-1.2

(PEG8)2AUAUAUAUAUAUAUAUAUAUA(PEG8) [Example 122]
[θ]222/[θ]208 [1, 5]: 1.06

(PEG8)3AUAUAUAUAUAUAUAUAUAUA(PEG8)3 [Example 126]
[θ]222/[θ]208 [1, 5]: 1.18

(PEG8)AUAUAUAUA(PEG8)2 [Example 119]
[θ]222/[θ]208 [1, 5]: 0.61

(PEG8)AUAUAUAUAUAUAUA(PEG8)2 [Example 120]
[θ]222/[θ]208 [1, 5]: 0.83

(PEG8)AUAUAUAUAUAUAUAUAUAUA(PEG8)2 [Example 121]
[θ]222/[θ]208 [1, 5]: 1.04

(PEG10)2AUAUAUAUAUAUAUAUAUAUA(PEG10)2 [Example 127]
[θ]222/[θ]208 [1, 5]: 1.2

AUAUAUAUA [Example 2]
θ222 nm/θ208 nm ratio [1, 6]: 0.72

AUAUAUAUA(PEG8)2 [Example 52]
AFM morphology [2]: Not assembled | θ222 nm/θ208 nm ratio [1, 4]: 0.54

AUAUAUAUAUAUAUA [Example 8]
θ222 nm/θ208 nm ratio [1, 6]: 1.13

AUAUAUAUAUAUAUA(PEG8)2 [Example 53]
Average diameter (nm) [2]: 20-30 nm | AFM morphology [2]: Micelle | θ222 nm/θ208 nm ratio [1, 4]: 1.11

AUAUAUAUAUAUAUAUAUAUA [Example 14]
θ222 nm/θ208 nm ratio [1, 6]: 1.26 | α-helix structure (in words) ([1]; from CD spectra): monomeric, nonpolar and perfect α-helix (MNP-helix) structure

AUAUAUAUAUAUAUAUAUAUA(PEG8)2 [Example 54]
Average diameter (nm) [2]: 20-90 nm | AFM morphology [2]: Micelle, vesicle | θ222 nm/θ208 nm ratio [1, 4]: 1.2

EAUAUAUAUAUAUAUAUAUAUA(PEG8)2 [Example 90]
Average diameter (nm) [2]: 20-30 nm | AFM morphology [2]: Micelle | θ222 nm/θ208 nm ratio [1, 4]: 1.21

EAUAUAUAUAUAUAUAUAUAUAGSGSGSGS (EA[Aib]A[Aib]A[Aib]A[Aib]A[Aib]A[Aib]A[Aib]A[Aib]A[Aib]A[Aib]AGSGSGSGS) [Example 95]
Average diameter (nm) [2]: 240-280 nm | AFM morphology [2]: Vesicle | θ222 nm/θ208 nm ratio [1, 4]: 1.2

EAUAUAUAUAUAUAUAUAUAUARGDRGDRGD (EA[Aib]A[Aib]A[Aib]A[Aib]A[Aib]A[Aib]A[Aib]A[Aib]A[Aib]A[Aib]ARGDRGDRGD) [Example 94]
θ222 nm/θ208 nm ratio [1, 4]: 1.06

EEAUAUAUAUAUAUAUAUAUAUA(PEG8)2 [Example 91]
Average diameter (nm) [2]: 20-30 nm | AFM morphology [2]: Micelle | θ222 nm/θ208 nm ratio [1, 4]: 1.18

EEEAUAUAUAUAUAUAUAUAUAUA(PEG8)2 [Example 92]
Average diameter (nm) [2]: 200 nm | AFM morphology [2]: Vesicle | θ222 nm/θ208 nm ratio [1, 4]: 1.2

EEEEAUAUAUAUAUAUAUAUAUAUA(PEG8)2 (EEEEAXAXAXAXAXAXAXAXAXAXA; (PEG8)2 C-terminal; SITE 6 2-aminoisobutyric acid; SITE 8 2-aminoisobutyric acid; SITE 10 2-aminoisobutyric acid; SITE 12 2-aminoisobutyric acid; SITE 14 2-aminoisobutyric acid; SITE 16 2-aminoisobutyric acid; SITE 20 2-aminoisobutyric acid; SITE 18 2-aminoisobutyric acid; SITE 22 2-aminoisobutyric acid; SITE 24 2-aminoisobutyric acid) [Example 93]
Average diameter (nm) [2]: 180-360 nm | AFM morphology [2]: Vesicle | θ222 nm/θ208 nm ratio [1, 4]: 1.16

Example 37: peptide complex (Wαm-RGD), SEQ ID NO 37 (A[Aib]A[Aib]A[Aib]A[Aib]AGRGDRGDG)
AFM morphology [2]: Irregular vesicle | θ222 nm/θ208 nm ratio [1, 4]: 0.28

Example 38: peptide complex (Wαm-RGD), SEQ ID NO 38 (L[Aib]L[Aib]L[Aib]L[Aib]LGRGDRGDG)
self-assembly behavior in an aqueous solvent ([2]; AFM): spherical particles | Average diameter (nm) [2]: 50-200 nm | AFM morphology [2]: Vesicle | θ222 nm/θ208 nm ratio [1, 4]: 0.44

Example 39: peptide complex (Wαm-RGD), SEQ ID NO 39 (A[Aib]A[Aib]A[Aib]A[Aib]A[Aib]A[Aib]A[Aib]AGRGDRGDG)
average diameter ([2]; AFM): 20 nm | self-assembly behavior in an aqueous solvent ([2]; AFM): self-assembled into spherical particles such as micelles; also recorded: micelle particles | average height ([2]; AFM, FIG. 80): 2-4 nm | length of micelle particles ([2]; AFM, FIG. 80): 6-10 nm | Average diameter (nm) [2]: 20 nm | AFM morphology [2]: Micelle | θ222 nm/θ208 nm ratio [1, 4]: 0.7

Example 43: peptide complex (Wαm-RGD, Wαm-GS), SEQ ID NO 43 (AXAXAXAXAXAXAXAXAXAXAGSGSG; SITE 2 2-aminoisobutyric acid; SITE 4 2-aminoisobutyric acid; SITE 6 2-aminoisobutyric acid; SITE 8 2-aminoisobutyric acid; SITE 10 2-aminoisobutyric acid; SITE 12 2-aminoisobutyric acid; SITE 14 2-aminoisobutyric acid; SITE 16 2-aminoisobutyric acid; SITE 18 2-aminoisobutyric acid; SITE 20 2-aminoisobutyric acid)
θ222 nm/θ208 nm ratio [1, 4]: 1.15

Example 45: peptide complex (Wαm-RGD, Wαm-GS), SEQ ID NO 45 (A[Aib]A[Aib]A[Aib]A[Aib]A[Aib]A[Aib]A[Aib]A[Aib]A[Aib]A[Aib]AGSGSGSGSG)
θ222 nm/θ208 nm ratio [1, 4]: 1.09

GSGAUAUAUAUAUAUAUAUAUAUAGSG [Example 116]
[θ]222/[θ]208 [1, 5]: 1.15

GSGSGAUAUAUAUAUAUAUAUAUAUAGSGSG [Example 117]
[θ]222/[θ]208 [1, 5]: 1.07

GSGSGSGSGAUAUAUAUAUAUAUAUAUAUAGSGSGSGSG [Example 118]
[θ]222/[θ]208 [1, 5]: 1.02

RAUAUAUAUAUAUAUAUAUAUAGRGDRGDRGDRGDG [Example 67]
minimum at 222 and 208 nm in the spectra ([1]; Table 11): no minimum was observed

RGDRGDAUAUAUAUAUAUAUAUAUAUARR [Example 73]
θ222 nm/θ208 nm ratio [1, 4]: 1.1

RGDRGDRGDAUAUAUAUAUAUAUAUAUAUARR [Example 74]
θ222 nm/θ208 nm ratio [1, 4]: 1.11

RGDRGDRGDRGDAUAUAUAUAUAUAUAUAUAUAR [Example 72]
minimum at 222 and 208 nm in the spectra ([1]; Table 11): no minimum was observed

RGDRGDRGDRGDAUAUAUAUAUAUAUAUAUAUARR [Example 75]
minimum at 222 and 208 nm in the spectra ([1]; Table 11): no minimum was observed

WAUAUAUAU(PEG2)5 [Example 46]
θ222 nm/θ208 nm ratio [1, 4]: 0.72

WAUAUAUAUAUAU(PEG2)5 [Example 48]
[θ]222/[θ]208 [1, 7]: 0.88 | θ222 nm/θ208 nm ratio [1, 4]: 0.88

WAUAUAUAUAUAU(PEG2)5 [Example 100]
[θ]222/[θ]208 [1, 7]: 0.95 | [θ]222/[θ]208 [1, 3]: 0.95

WAUAUAUAUAUAUAU(PEG2)5 [Example 49]
[θ]222/[θ]208 [1, 7]: 1.05 | θ222 nm/θ208 nm ratio [1, 4]: 1.05

WAUAUAUAUAUAUAU(PEG2)5 [Example 101]
[θ]222/[θ]208 [1, 7]: 1.01 | [θ]222/[θ]208 [1, 3]: 1.01

WAUAUAUAUAUAUAUAU(PEG2)5 [Example 50]
[θ]222/[θ]208 [1, 7]: 1.10 | θ222 nm/θ208 nm ratio [1, 4]: 1.10

WAUAUAUAUAUAUAUAU(PEG2)5RGDRGD(PEG2)5 [Example 110]
[θ]222/[θ]208 [1, 3]: 1.06

WAUAUAUAUAUAUAUAUAU(PEG2)5 [Example 51]
θ222 nm/θ208 nm ratio [1, 4]: 1.19

WAUAUAUAUAUAUAUAUAU(PEG2)5 [Example 103]
[θ]222/[θ]208 [1, 3]: 1.21

WAUAUAUAUAUAUAUAUAUGHHHHHHHHHHGRGDRGDRGDG [Example 109]
[θ]222/[θ]208 [1, 3]: 0.89

WAUAUAUAUAUAUAUAUGHHHHHHHHHHGRGDRGDRGDG [Example 108]
[θ]222/[θ]208 [1, 3]: 0.83

WAUAUAUAUAUAUAUGHHHHHHHHHHGRGDRGDRGDG [Example 107]
[θ]222/[θ]208 [1, 3]: 0.71

WAUAUAUAUAUAUGHHHHHHHHHHGRGDRGDRGDG [Example 106]
[θ]222/[θ]208 [1, 3]: 0.65

WAUAUAUAUAUGHHHHHHHHHHGRGDRGDRGDG [Example 105]
[θ]222/[θ]208 [1, 3]: 0.38

WAUAUAUAUGHHHHHHHHHHGRGDRGDRGDG [Example 104]
[θ]222/[θ]208 [1, 3]: 0.2
